# Reference: ChEMBL document CHEMBL1153521, “A novel decoy that interrupts G93A-superoxide dismutase gain of interaction with malate dehydrogenase improves survival in an amyotrophic lateral sclerosis cell model” (J Med Chem, 2009)
# Activity calls are given as the source filed them. No cut-off for these calls is given here. Peptide text beside a SMILES is read from it. * marks the point of attachment. X1 = CN(C)c1ccc2c(-c3ccc(C(=O)*)cc3C(=O)O)c3ccc(=[N+](C)C)cc-3oc2c1
# What was measured:
# [1] = Protective effect against rotenone-induced toxicity in mouse NSC-34 cells expressing GFP-tagged human SOD1 G93A mutant assessed as increase in survival at 1 uM after 48 hrs by methylene blue assay relative to rotenone-treated cells expressing GFP-tagged wild type human SOD1; assay type: functional
# NSC-34 [2] = assay: Inhibition of interaction of human SOD1 G93A mutant with YFP-tagged MDH1 transfected in mouse NSC-34 cells after 48 hrs by pull-down immunoprecipitation analysis; assay type: cell-based
# [3] = Drug penetration in mouse NSC-34 cells at 1 uM after 24 hrs by fluorescence confocal microscopy; assay type: ADME, cell-based; settings: nsc-34, 24 h
# [4] = Increase in ATP level in mouse NSC-34 cells expressing human SOD1 G93A mutant at 1 uM after 48 hrs relative to cells expressing wild type human SOD1; assay type: functional
# [5] = Protective effect against 2 mg/ml glucose-induced toxicity in mouse NSC-34 cells expressing GFP-tagged human SOD1 G93A mutant assessed as increase in survival at 1 uM after 48 hrs by methylene blue assay relative to 2 mg/ml glucose-treated cells expressing GFP-tagged wild type human SOD1; assay type: functional
# NSC-34 [6] = assay: Inhibition of interaction of CFP-tagged human SOD1 G93A mutant with YFP-tagged MDH1 transfected in mouse NSC-34 cells by FRET assay; assay type: cell-based; design: scale not given: the % may be the effect or the level left
Molecule,Activity [1] [%],inhibition (NSC-34 [2]),Drug uptake [3] [%],Activity [4] [%],Activity [5] [%],Activity (NSC-34 [6])
CC[C@H](C)[C@H](NC(=O)[C@H](Cc1ccccc1)NC(=O)[C@H](CCC(=O)O)NC(=O)CNC(=O)[C@H](CCCCN)NC(=O)[C@H](CC(C)C)NC(=O)[C@H](Cc1c[nH]c2ccccc12)NC(=O)[C@H](CO)NC(=O)c1ccc(-c2c3ccc(=[N+](C)C)cc-3oc3cc(N(C)C)ccc23)c(C(=O)O)c1)C(=O)N[C@H](C(=O)N[C@H](C(=O)N[C@H](C(=O)N[C@@H](CCC(N)=O)C(=O)N[C@@H](CCC(N)=O)C(=O)N[C@@H](CCCNC(=N)N)C(=O)NCC(=O)N[C@@H](C)C(=O)N[C@@H](C)C(=O)N[C@H](C(=O)N[C@H](C(=O)N[C@@H](CCCCN)C(=O)N[C@@H](C)C(=O)N[C@@H](CCCNC(=N)N)C(=O)N[C@@H](CCCCN)C(=O)O)[C@@H](C)CC)C(C)C)C(C)C)[C@@H](C)O)[C@@H](C)O (X1-SWLKGEFITTVQQRGAAVIKARK-OH),98,Active,100,90,97,–
H-SWLKGEFITTVQQRGAAVIKARK-OH,–,–,–,–,–,79%
CC(C)C[C@H](NC(=O)[C@H](CC(N)=O)NC(=O)c1ccc(-c2c3ccc(=[N+](C)C)cc-3oc3cc(N(C)C)ccc23)c(C(=O)O)c1)C(=O)N[C@@H](CO)C(=O)O,–,inactive,100,–,–,–
H-GQIAYSLLYSIGNGS-OH,–,–,–,–,–,inactive
